Assay results: US20220370453A1 (Storm Therapeutics Ltd, priority 2019, published 2022)

Columns and labels:
BCDIN3D [1] = biological target: T1, BCDIN3D (Homo sapiens, UniProt Q7Z5W3); assay: BCDIN3D IC50 RFMS (RapidFire) assay with mini-helix; format: biochemical; conditions: mini-helix substrate 0.2 μM, SAM 6 μM, 25 nM enzyme
T1 sequence (Q7Z5W3 1-292): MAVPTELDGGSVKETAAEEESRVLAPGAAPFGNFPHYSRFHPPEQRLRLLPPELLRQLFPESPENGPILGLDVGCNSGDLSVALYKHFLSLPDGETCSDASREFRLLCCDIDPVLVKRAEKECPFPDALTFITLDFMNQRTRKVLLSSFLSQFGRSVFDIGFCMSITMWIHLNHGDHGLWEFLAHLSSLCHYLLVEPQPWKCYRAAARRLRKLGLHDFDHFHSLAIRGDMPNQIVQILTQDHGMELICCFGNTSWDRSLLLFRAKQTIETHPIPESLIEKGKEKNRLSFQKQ
In short: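 25 nM enzyme preincubated 10 min at room temperature with compound (1% DMSO) in 25 mM Tris pH 8.0, 10 mM DTT, 1 mM EDTA, 0.03% BSA. Reaction started with 0.2 μM mini-helix plus 6 μM SAM, run 1 h at 37 °C, quenched with TCA; SAH product quantified by RapidFire MS against isotopic SAH standards.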

BCDIN3D [2] = biological target: T1, BCDIN3D; assay: BCDIN3D InCellPulse thermal stability assay in transfected A549 cells; format: cell-based; conditions: transiently transfected A549 cells, heat shock 58° C. 15 min
In short: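 A549 cells transiently expressing BCDIN3D N-terminally fused to ePL ProLabel tag, 1500 cells/well, pre-incubated 1 h at 37 °C with compound (0.6% DMSO). Heat shock 58 °C for 15 min; remaining soluble fusion detected by split β-galactosidase complementation luminescence.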

Cn1ncc2c(NCC3CCC3)nc(NC[C@H](N)c3ccccc3)nc21 [Compound 4.105, N6-[(2R)-2-amino-2-phenyl-ethyl]-N4-(cyclobutylmethyl)-1-methyl-pyrazolo[3,4-d]pyrimidine-4,6-diamine]
IC50 (BCDIN3D [1]): 74 nM | IC50 (BCDIN3D [2]): 144 nM

Cn1ncc2c(NCC3CCC3(F)F)nc(NC[C@H](N)c3ccccc3)nc21 (stereo partly drawn) [Compound 4.106, N6-[(2R)-2-amino-2-phenyl-ethyl]-N4-[(2,2-difluorocyclobutyl)methyl]-1-methyl-pyrazolo[3,4-d]pyrimidine-4,6-diamine]
IC50 (BCDIN3D [1]): 149 nM | IC50 (BCDIN3D [2]): 437 nM

Cn1ncc2c(NCC3(F)CCC3)nc(NC[C@H](N)c3ccccc3)nc21 [Compound 4.107, N6-[(2R)-2-amino-2-phenyl-ethyl]-N4-[(1-fluorocyclobutyl)methyl]-1-methyl-pyrazolo[3,4-d]pyrimidine-4,6-diamine]
IC50 (BCDIN3D [1]): 280 nM | IC50 (BCDIN3D [2]): 618 nM

Cn1ncc2c(NCC3CC(F)C3)nc(NC[C@H](N)c3ccccc3)nc21 (stereo partly drawn) [Compound 4.108, N6-[(2R)-2-amino-2-phenyl-ethyl]-N4-[(3-fluorocyclobutyl)methyl]-1-methyl-pyrazolo[3,4-d]pyrimidine-4,6-diamine]
IC50 (BCDIN3D [1]): 288 nM | IC50 (BCDIN3D [2]): 611 nM

Cn1ncc2c(NC3CC(C(F)(F)F)C3)nc(NC[C@H](N)c3ccccc3)nc21 (stereo partly drawn) [Compound 4.109, N6-[(2R)-2-amino-2-phenyl-ethyl]-1-methyl-N4-[3-(trifluoromethyl)cyclobutyl]pyrazolo[3,4-d]pyrimidine-4,6-diamine]
IC50 (BCDIN3D [1]): 17 nM | IC50 (BCDIN3D [2]): 34 nM

Cn1ncc2c(NCC(C)(C)F)nc(NC[C@H](N)c3ccccc3)nc21 [Compound 4.110, N6-[(2R)-2-amino-2-phenyl-ethyl]-N4-(2-fluoro-2-methyl-propyl)-1-methyl-pyrazolo[3,4-d]pyrimidine-4,6-diamine]
IC50 (BCDIN3D [1]): 553 nM | IC50 (BCDIN3D [2]): 672 nM

Cn1ncc2c(NC3(C)CCCCC3)nc(NC[C@H](N)c3ccccc3)nc21 [Compound 4.111, N6-[(2R)-2-amino-2-phenyl-ethyl]-1-methyl-N4-(1-methylcyclohexyl)pyrazolo[3,4-d]pyrimidine-4,6-diamine]
IC50 (BCDIN3D [1]): 369 nM | IC50 (BCDIN3D [2]): 292 nM

Cn1ncc2c(NCC3CCC3F)nc(NC[C@H](N)c3ccccc3)nc21 (stereo partly drawn) [Compound 4.112, N6-[(2R)-2-amino-2-phenyl-ethyl]-N4-[(2-fluorocyclobutyl)methyl]-1-methyl-pyrazolo[3,4-d]pyrimidine-4,6-diamine]
IC50 (BCDIN3D [1]): 164 nM | IC50 (BCDIN3D [2]): 439 nM

Cn1ncc2c(NC3CCCC3)nc(NC[C@H](N)c3ccccc3)nc21 [Compound 4.113, N6-[(2R)-2-amino-2-phenyl-ethyl]-N4-cyclopentyl-1-methyl-pyrazolo[3,4-d]pyrimidine-4,6-diamine]
IC50 (BCDIN3D [1]): 62 nM | IC50 (BCDIN3D [2]): 148 nM

Cn1ncc2c(NCCC(F)(F)F)nc(NC[C@H](N)c3ccccc3)nc21 [Compound 4.114, N6-[(2R)-2-amino-2-phenyl-ethyl]-1-methyl-N4-(3,3,3-trifluoropropyl)pyrazolo[3,4-d]pyrimidine-4,6-diamine]
IC50 (BCDIN3D [1]): 540 nM | IC50 (BCDIN3D [2]): 1560 nM

Cn1ncc2c(NCC3CC3(Cl)Cl)nc(NC[C@H](N)c3ccccc3)nc21 (stereo partly drawn) [Compound 4.115, N6-[(2R)-2-amino-2-phenyl-ethyl]-N4-[(2,2-dichlorocyclopropyl)methyl]-1-methyl-pyrazolo[3,4-d]pyrimidine-4,6-diamine]
IC50 (BCDIN3D [1]): 39 nM | IC50 (BCDIN3D [2]): 271 nM

Cn1ncc2c(NC3(C)CCCC3)nc(NC[C@H](N)c3ccccc3)nc21 [Compound 4.116, N6-[(2R)-2-amino-2-phenyl-ethyl]-1-methyl-N4-(1-methylcyclopentyl)pyrazolo[3,4-d]pyrimidine-4,6-diamine]
IC50 (BCDIN3D [1]): 151 nM | IC50 (BCDIN3D [2]): 123 nM

COC[C@@H](C)Nc1nc(NC[C@H](N)c2ccccc2)nc2c1cnn2C [Compound 4.117, N6-[(2R)-2-amino-2-phenyl-ethyl]-N4-[(1R)-2-methoxy-1-methyl-ethyl]-1-methyl-pyrazolo[3,4-d]pyrimidine-4,6-diamine]
IC50 (BCDIN3D [1]): 783 nM | IC50 (BCDIN3D [2]): 608 nM

Cn1ncc2c(NC(C)(C)C3CCOCC3)nc(NC[C@H](N)c3ccccc3)nc21 [Compound 4.118, N6-[(2R)-2-amino-2-phenyl-ethyl]-1-methyl-N4-(1-methyl-1-tetrahydropyran-4-yl-ethyl)pyrazolo[3,4-d]pyrimidine-4,6-diamine]
IC50 (BCDIN3D [1]): 2150 nM | IC50 (BCDIN3D [2]): 2500 nM

Cn1ncc2c(NC3CC4(CC4)C3)nc(NC[C@H](N)c3ccccc3)nc21 [Compound 4.119, 1-methyl-N6-[(2R)-2-amino-2-phenyl-ethyl]-N4-spiro[2.3]hexan-5-yl-pyrazolo[3,4-d]pyrimidine-4,6-diamine]
IC50 (BCDIN3D [1]): 24 nM | IC50 (BCDIN3D [2]): 27 nM

Cn1ncc2c(NC3CC3(C)C)nc(NC[C@H](N)c3ccccc3)nc21 (stereo partly drawn) [Compound 4.120, N6-[(2R)-2-amino-2-phenyl-ethyl]-N4-(2,2-dimethylcyclopropyl)-1-methyl-pyrazolo[3,4-d]pyrimidine-4,6-diamine]
IC50 (BCDIN3D [1]): 252 nM | IC50 (BCDIN3D [2]): 1450 nM

CC(C)(C)Nc1nc(NC[C@H](N)c2ccccc2)nc2c1cnn2C1CC1 [Compound 4.121, N6-[(2R)-2-amino-2-phenyl-ethyl]-N4-tert-butyl-1-cyclopropyl-pyrazolo[3,4-d]pyrimidine-4,6-diamine]
IC50 (BCDIN3D [1]): 6450 nM | IC50 (BCDIN3D [2]): 4810 nM

CC(C)[C@@H](C)Nc1nc(NC[C@H](N)c2ccccc2)nc2c1cnn2C [Compound 4.122, N6-[(2R)-2-amino-2-phenylethyl]-1-methyl-N4-[(2R)-3-methylbutan-2-yl]-1H-pyrazolo[3,4-d]pyrimidine-4,6-diamine]
IC50 (BCDIN3D [1]): 120 nM | IC50 (BCDIN3D [2]): 220 nM

CC(C)[C@H](C)Nc1nc(NC[C@H](N)c2ccccc2)nc2c1cnn2C [Compound 4.123, N6-[(2R)-2-amino-2-phenylethyl]-1-methyl-N4-[(2S)-3-methylbutan-2-yl]-1H-pyrazolo[3,4-d]pyrimidine-4,6-diamine]
IC50 (BCDIN3D [1]): 1410 nM | IC50 (BCDIN3D [2]): 3560 nM

Cn1ncc2c(NC3CC4(CC(O)C4)C3)nc(NC[C@H](N)c3ccccc3)nc21 (stereo partly drawn) [Compound 4.124, 6-[(6-{[(2R)-2-amino-2-phenylethyl]amino}-1-methyl-1H-pyrazolo[3,4-d]pyrimidin-4-yl)amino]spiro[3.3]heptan-2-ol]
IC50 (BCDIN3D [1]): 290 nM | IC50 (BCDIN3D [2]): 570 nM

Cn1ncc2c(NC3CCC(C(F)(F)F)CC3)nc(NC[C@H](N)c3ccccc3)nc21 (stereo partly drawn) [Compound 4.125, N6-[(2R)-2-amino-2-phenylethyl]-1-methyl-N4-[4-(trifluoromethyl)cyclohexyl]-1H-pyrazolo[3,4-d]pyrimidine-4,6-diamine]
IC50 (BCDIN3D [1]): 450 nM | IC50 (BCDIN3D [2]): 2310 nM

Cn1ncc2c(N[C@H]3CCC(F)(F)C3)nc(NC[C@H](N)c3ccccc3)nc21 [Compound 4.126, N6-[(2R)-2-amino-2-phenylethyl]-N4-[(1S)-3,3-difluorocyclopentyl]-1-methyl-1H-pyrazolo[3,4-d]pyrimidine-4,6-diamine]
IC50 (BCDIN3D [1]): 450 nM | IC50 (BCDIN3D [2]): 580 nM

Cn1ncc2c(NC3(C)CCOCC3)nc(NC[C@H](N)c3ccccc3)nc21 [Compound 4.127, N6-[(2R)-2-amino-2-phenylethyl]-1-methyl-N4-(4-methyloxan-4-yl)-1H-pyrazolo[3,4-d]pyrimidine-4,6-diamine]
IC50 (BCDIN3D [1]): 6770 nM | IC50 (BCDIN3D [2]): 2240 nM
